Laboratory results from patent US20120252689A1, “GENE EXPRESSION SIGNATURE FOR WNT/B-CATENIN SIGNALING PATHWAY AND USE THEREOF” (priority 2011, published 2012).

Tests used:
active β-catenin [1] = test: Western blot of active β-catenin after LiCl treatment of 293H and CCD1079SK cells; format: cell-based, human; conditions: 20 μM LiCl, 24 h in serum-free medium, FIG. 3B
Procedure: For positive regulation with LiCl treatment, 293H and CCD1079SKcells were plated in 6-well plate in a density of 2×10^5 cells/well/2 ml and cells were switched to serum-free medium 24 hours after plating. After 12 hours incubation in serum-free medium, cells were treated with or without 20 μM LiCl for 24 h in serum-free medium. At the end of treatment, cells were lysed in 200 μl of G6 lysis buffer and RNA was isolated with RT2 qPCR-Grade RNA Isolation Kit from SABiosciences according to manufacturer's protocol described in experimental protocol section. The protein extraction and western blot was carried out according to western blot protocol with mouse anti-active β-catenin antibody (1:1000). […] The RNA was isolated with RT2 qPCR-Grade RNA Isolation Kit from SABiosciences according to manufacturer's protocol described in experimental protocol section.
(§1) At the end of experimental treatment, cells were lysed in Modified RIPA buffer (150 mM NaCl, 50 mM TrisHCl, 1% IGEPAL, 0.5% sodium deoxycholate, 1 mM EDTA, 1% Triton X-100 and 0.1% SDS with protease and phosphatase inhibitor) (all chemicals from Sigma). […] After 15 minutes centrifuge at 15000 rpm at 4 degrees C., supernatant was transferred to a new 1.5 ml tube and protein concentration was measured with BCA protein assay according to manufacturer's standard protocol (Pierce). […]

active β-catenin [2] = test: Western blot of active β-catenin after Wnt3a treatment of 293H cells; format: cell-based, human; conditions: 400 ng/ml Wnt3a, 12 hour treatment in serum-free medium, compared to untreated samples, FIG. 2A
Procedure: The protocol that was used to identify the subject gene signature is depicted schematically in FIG. 1. As depicted therein, human embryonic kidney 293H cells were plated in 6-well plate in a density of 10′ cells per well in 2 ml growth medium. Plated cells were incubated in a cell culture incubator at 37 degrees C. with 5% CO2 supplied. Twenty four hours after plating, cells were transfected with siRNA specifically targeting β-catenin or non targeting siRNA as control. For each well, 6 μl of SureFECT transfection reagent (SABiosciences, a QIAGEN company) was diluted into 200 μl of OptiMEM medium (Invitrogen). The diluted transfection reagent was mixed with 20 nM −β catenin targeting siRNA duplex D ([…] (SEQ ID NO: 65)) (SABiosciences, a QIAGEN Company) or non-targeting siRNA ([…] (SEQ ID NO: 66)) (SABiosciences, a QIAGEN owned company) as control. […]
as §1

[3] = tested on: Wnt/β-catenin target genes such as β-catenin (CTNNB1), MYC, CCND1 and AXIN2; test: Real-time RT-PCR of Wnt/β-catenin target genes after Wnt3a treatment of 293H cells; format: cell-based, human; conditions: 400 ng/ml Wnt3a, 12 hours, compared to untreated samples, FIG. 2B
Procedure: The protocol that was used to identify the subject gene signature is depicted schematically in FIG. 1. As depicted therein, human embryonic kidney 293H cells were plated in 6-well plate in a density of 10′ cells per well in 2 ml growth medium. Plated cells were incubated in a cell culture incubator at 37 degrees C. with 5% CO2 supplied. Twenty four hours after plating, cells were transfected with siRNA specifically targeting β-catenin or non targeting siRNA as control. For each well, 6 μl of SureFECT transfection reagent (SABiosciences, a QIAGEN company) was diluted into 200 μl of OptiMEM medium (Invitrogen). The diluted transfection reagent was mixed with 20 nM −β catenin targeting siRNA duplex D ([…] (SEQ ID NO: 65)) (SABiosciences, a QIAGEN Company) or non-targeting siRNA ([…] (SEQ ID NO: 66)) (SABiosciences, a QIAGEN owned company) as control. After incubation at room temperature for 20 min, the transfection mixture was added into 293H cells in 6-well plate with 2 ml growth medium. […]
For RNA extraction, cells were lysed in 200 μl of G6 buffer (SABiosciences, a QIAGEN company) for each well. […] The concentration of RNA was measured with Nanodrop spectrophotometer (Thermo SCIENTIFIC) and the RNA was further processed for real-time RT PCR or microarray gene expression profiling analysis. […]

active β-catenin [4] = test: Western blot of active β-catenin after Wnt3a treatment of ten different cell lines; format: cell-based; conditions: 400 ng/ml Wnt3a, 12 h in serum-free medium, FIG. 3B
Procedure: To obtain ten positively regulated samples with Wnt3a treatment, ten different cell lines were plated in 6-well plates in a density of 2×10^5 cells/well/2 ml. After 24 h of plating, cells were switched to serum-free medium by removing normal culture medium, washing cells in PBS two times and replacing with 1 ml serum-free medium each well. After 12 hours in serum-free medium, cells were replaced with serum-free medium with or without 400 ng/ml Wnt3a in duplicate wells for an additional incubation of 12 h. At the end of 12 hours incubation, cells were either lysed in 50 μl modified RIPA buffer for protein lysate extraction or in 200 μl G6 lysis buffer for RNA isolation. The protein extraction and western blot was carried out according to western blot protocol with mouse anti-active β-catenin antibody (1:1000). […]
as §1

Compound	active β-catenin protein levels (active β-catenin [1])	protein levels of active β-catenin (active β-catenin [2])	mRNA expression of Wnt/β-catenin target genes (CTNNB1, MYC, CCND1, AXIN2) [3]	active β-catenin protein levels (active β-catenin [4])
[Cl-].[Li+] [LiCl]	increased active β-catenin protein levels			
Wnt3a		increased protein levels of active β-catenin	upregulation of Wnt/β-catenin target genes	increased active β-catenin protein levels
